Measured values as given in US20260027108A1, “PHARMACEUTICAL COMPOSITION OF HETEROARYL DERIVATIVE AND MEDICAL USE THEREOF” (Haisco Pharmaceutical Group Co., Ltd., priority 2022, published 2026).
Like-named read-outs stand apart in the source and are kept apart here. Each block holds one compound with its values, some of them ahead of it.

How the values were obtained:
[1] = test system: MDA-MB-436 subcutaneous transplanted tumor; experiment: Mouse MDA-MB-436 subcutaneous in vivo transplanted tumor model; conditions: Day 0-Day 10: 1 mg/kg, Day 11-Day 28: 0.1 mg/kg, once a day
Procedure: Human breast cancer MDA-MB-436 cells were placed in Leibovitz's L-15 medium (supplemented with 10 μg/mL insulin, 16 μg/mL glutathione, 10% fetal bovine serum and 1% penicillin-streptomycin solution) and cultured at 37° C. Conventional digestion treatment with trypsin was performed twice a week for passage. When the cell saturation was 80%-90%, and the number reached the requirement, the cells were harvested, counted, and inoculated. BALB/c nude mice (from Beijing Vital River Laboratory Animal Technology Co., Ltd.) were subcutaneously inoculated with 0.2 mL (10×10^6) of MDA-MB-436 cells (plus matrigel, with the volume ratio of 1:1) on the right back. When the average tumor volume reached about 180 mms, grouping and administration were performed (marked as Day 0). […] The administration frequency was once a day, the administration cycle was 29 days, and the drug withdrawal observation period was set to 14 days. After grouping, the tumor diameter was measured twice a week with a vernier caliper. The formula for calculating the tumor volume was: V=0.5×a×b^2, where a and b represented the long and short diameters of the tumor, respectively.

PARP1 enzyme = PARP1 enzyme (Homo sapiens (Human), UniProt P09874); experiment: PARP1 enzyme activity test (chemiluminescence kit, BPS Bioscience); assay type: biochemical; conditions: read-out: PARP-1 enzyme activity IC50
Procedure: PARP1 chemical fluorescence detection kit was purchased from BPS Bioscience. The histone solution in the kit was diluted 5× with 1×PBS, and 25 μL of the diluted histone solution was added to a microwell plate and incubated overnight at 4° C. After the incubation, the plate was washed three times with PBST (0.05% Tween-20). 100 μL of the blocking solution was added to the microwell plate and incubated at 25° C. for 90 minutes. After the incubation was completed, the plate was washed three times with PBST. 2.5 μL of compounds at different concentrations diluted in test buffer and 12.5 μL of substrate mixed solution (1.25 μL 10×PARP test buffer; 1.25 μL 10×PARP test mixed solution; 2.5 μL Activated DNA, 7.5 μL double-distilled water) were added to the microwell plate. The PARP1 enzyme was diluted to 2 ng/μL, 10 μL of the diluent was added to the microwell plate, and the reaction system was incubated at 25° C. for 60 minutes.
After the incubation was completed, the plate was washed three times with PBST. Streptavidin-HRP was diluted 50× with a blocking solution, and 25 μL of the diluent was added to the microwell plate and incubated at 25° C. for 30 minutes. After the incubation, the plate was washed three times with PBST. ELISA ECL substrate A and substrate B were mixed at a ratio of 1:1 (v/v), 50 μL of the mixture was added to the microwell plate, and the chemiluminescence value was read.
Curve fitting was performed by four parameters (log(inhibitor) vs. response—Variable slope) using GraphPad Prism software, and the IC50 value was calculated.

MDA-MB-436 cells = experiment: MDA-MB-436 cell activity test (CellTiter-Glo, 7 days); assay type: cell-based, Human; conditions: for IC50: 7 days incubation, read-out: MDA-MB-436 cell inhibitory activity IC50
Procedure: On day 1, the cells in the exponential growth phase were collected, and the cell suspension was adjusted to 4000 cells/135 μL with the culture medium. 135 μL of the cell suspension was added to each well of a 96-well cell culture plate and incubated overnight. On day 2, compounds at different concentrations were added, and the plate was placed in the incubator and incubated for 7 days. After the incubation was completed, according to operation instructions for a CellTiter-Glo kit (Promega, G7573), 75 μL of CTG solution, which was already pre-melted and equilibrated to room temperature, was added to each well, and the mixture was uniformly mixed for 2 min using a microplate shaker. The plate was placed at room temperature for 10 min, and then […] were measured using an Envision2104 plate reader (PerkinElmer). […] The IC50 value was calculated using GraphPad Prism software.

Sequence of PARP1 enzyme (P09874 whole entry): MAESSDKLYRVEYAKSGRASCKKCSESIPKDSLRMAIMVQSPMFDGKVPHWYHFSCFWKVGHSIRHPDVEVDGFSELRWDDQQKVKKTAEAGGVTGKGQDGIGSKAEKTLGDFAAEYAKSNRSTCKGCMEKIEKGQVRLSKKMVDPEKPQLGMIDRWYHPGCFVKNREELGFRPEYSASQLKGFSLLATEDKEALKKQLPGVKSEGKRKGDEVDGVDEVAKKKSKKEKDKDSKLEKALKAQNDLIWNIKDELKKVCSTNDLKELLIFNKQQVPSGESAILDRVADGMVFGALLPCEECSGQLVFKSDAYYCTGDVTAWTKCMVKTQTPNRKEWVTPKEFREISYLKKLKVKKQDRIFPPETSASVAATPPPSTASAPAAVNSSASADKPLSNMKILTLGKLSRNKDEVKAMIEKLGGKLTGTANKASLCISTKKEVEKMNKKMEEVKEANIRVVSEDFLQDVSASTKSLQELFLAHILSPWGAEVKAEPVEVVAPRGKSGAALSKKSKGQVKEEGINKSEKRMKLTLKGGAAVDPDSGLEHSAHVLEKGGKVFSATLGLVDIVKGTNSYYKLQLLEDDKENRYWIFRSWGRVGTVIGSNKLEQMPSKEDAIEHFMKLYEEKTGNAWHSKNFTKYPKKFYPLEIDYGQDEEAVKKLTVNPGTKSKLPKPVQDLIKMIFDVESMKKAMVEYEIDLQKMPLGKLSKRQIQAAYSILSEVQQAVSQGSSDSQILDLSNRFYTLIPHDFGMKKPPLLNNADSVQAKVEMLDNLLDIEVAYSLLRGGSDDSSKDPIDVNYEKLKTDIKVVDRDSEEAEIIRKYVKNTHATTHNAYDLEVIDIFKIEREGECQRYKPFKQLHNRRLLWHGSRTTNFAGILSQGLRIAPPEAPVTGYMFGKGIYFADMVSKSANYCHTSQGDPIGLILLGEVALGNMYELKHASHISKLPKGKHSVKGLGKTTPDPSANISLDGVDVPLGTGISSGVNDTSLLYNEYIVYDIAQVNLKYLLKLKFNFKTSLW

Structure (SMILES): CCc1cc2ncc(CN3CCN(c4ccc(C(=O)NC5CC5)nc4)CC3)cc2[nH]c1=O [Compound 4]
- body weight of the animals [1]: no significant decrease

Structure (SMILES): CCC1=CC2N=CC(CN3CCN(c4ccc(C(=O)C[C@@H]5C[C@@H]5F)nc4)CC3)=CC2CC1=O (stereo partly drawn) [Compound 11]
- IC50 (PARP1 enzyme): 0.54 nM
- Max inh. % 10 μM (MDA-MB-436 cells; 10 μM, MDA-MB-436 cells): 85.2%
- IC50 (MDA-MB-436 cells): 6 nM

Structure (SMILES): CCc1cc2ncc(CN3CCN(c4ccc(NC(=O)[C@@H]5C[C@H]5F)nc4)CC3)cc2[nH]c1=O [Compound 35]
- IC50 (PARP1 enzyme): 0.97 nM

The next lines start with results.

- IC50 (PARP1 enzyme): 0.66 nM
Structure (SMILES): CCc1cc2ncc(CN3CCN(c4ccc(NC(=O)[C@H]5C[C@H]5F)nc4)CC3)cc2[nH]c1=O [Compound 34]

- IC50 (MDA-MB-436 cells; Homo sapiens, MDA-MB-436, 168 h): 2.3 nM
Structure (SMILES): CCc1cc2ncc(CN3CCN(c4ccc(C(=O)NC5C[C@H]5F)nc4)CC3)cc2[nH]c1=O (stereo partly drawn) [Compound 41]
- inhibition at 10 µM (MDA-MB-436 cells; Homo sapiens, 10 μM, MDA-MB-436 cells, read-out: Max inh. % 10 μM): 92.1%

- IC50 (PARP1 enzyme): 0.56 nM
Structure (SMILES): COc1cc2ncc(CN3CCN(c4ccc(C(=O)NC5CN(c6ccccc6)C5)nc4)CC3)cc2[nH]c1=O [Compound 46]
